From ChEMBL document CHEMBL1687756 (Antimicrob Agents Chemother, 2010)

Tests used:
[1] = Drug level in male Beagle dog thymus at 200 mg/kg administered intramuscularly after 3 months; type: ADME, organism-based, Canis lupus familiaris; set-up: dose 200 mg/kg, route intramuscular; details: im, read-out: Drug uptake
[2] = Ratio of drug level in thymus to plasma in female Beagle dog at 400 mg/kg administered intramuscularly after 1 month; type: ADME, organism-based, Canis lupus familiaris; set-up: dose 400 mg/kg, route intramuscular; details: im
[3] = Plasma concentration in Beagle dog at 5 mg/kg, sc after 3 months; type: ADME, organism-based, Canis lupus familiaris; set-up: dose 5 mg/kg, route subcutaneous
[4] = AUC (0 to infinity) in Sprague-Dawley rat at 1.25 mg/kg, iv after 2 days; type: ADME, organism-based; set-up: time infinity, dose 1.25 mg/kg, route intravenous; details: plasma
[5] = AUC (0 to last) in female dog at 200 mg, sc after 29 days; details: plasma
[6] = Ratio of drug level in thymus to plasma in female Beagle dog at 400 mg/kg, sc after 3 months; type: ADME, organism-based, Canis lupus familiaris; set-up: dose 400 mg/kg, route subcutaneous
[7] = Drug level in male Beagle dog spleen at 200 mg/kg administered intramuscularly after 3 months; type: ADME, organism-based, Canis lupus familiaris; set-up: dose 200 mg/kg, route intramuscular; details: im, read-out: Drug uptake
[8] = Ratio of drug level in lymph node iliac to plasma in Beagle dog at 5 mg/kg, sc after 3 months; type: ADME, organism-based, Canis lupus familiaris; set-up: dose 5 mg/kg, route subcutaneous
[9] = Drug level in female Beagle dog spleen at 200 mg/kg administered intramuscularly after 1 month; type: ADME, organism-based, Canis lupus familiaris; set-up: dose 200 mg/kg, route intramuscular; details: im, read-out: Drug uptake
[10] = Drug level in Beagle dog lymph node popliteal at 5 mg/kg administered intramuscularly after 1 month; type: ADME, organism-based, Canis lupus familiaris; set-up: dose 5 mg/kg, route intramuscular; details: im, read-out: Drug uptake
[11] = Ratio of drug level in spleen to plasma in female Beagle dog at 200 mg/kg, sc after 1 month; type: ADME, organism-based, Canis lupus familiaris; set-up: dose 200 mg/kg, route subcutaneous
[12] = Ratio of drug level in spleen to plasma in male Beagle dog at 400 mg/kg administered intramuscularly after 3 months; type: ADME, organism-based, Canis lupus familiaris; set-up: dose 400 mg/kg, route intramuscular; details: im
[13] = Tmax in female dog at 200 mg administered intramuscularly after 29 days; details: in vivo, im
[14] = Drug level in Beagle dog lymph node axillar at 5 mg/kg, sc after 6 months; type: ADME, organism-based, Canis lupus familiaris; set-up: dose 5 mg/kg, route subcutaneous; details: axillary lymph node, read-out: Drug uptake
[15] = Ratio of drug level in spleen to plasma in female Beagle dog at 400 mg/kg administered intramuscularly after 1 month; type: ADME, organism-based, Canis lupus familiaris; set-up: dose 400 mg/kg, route intramuscular; details: im
[16] = Drug level in Beagle dog skin at non-injected site at 5 mg/kg, sc after 6 months; type: ADME, organism-based, Canis lupus familiaris, Zone of skin; set-up: dose 5 mg/kg, route subcutaneous; details: read-out: Drug uptake
[17] = AUC (0 to last) in male dog at 200 mg, sc after 29 days; details: plasma
[18] = Ratio of drug level in spleen to plasma in female Beagle dog at 400 mg/kg, sc after 1 month; type: ADME, organism-based, Canis lupus familiaris; set-up: dose 400 mg/kg, route subcutaneous
[19] = Cmax in male dog at 200 mg, sc after 85 days; details: in vivo
[20] = Drug level in Beagle dog spleen at 5 mg/kg, sc after 6 months; type: ADME, organism-based, Canis lupus familiaris; set-up: dose 5 mg/kg, route subcutaneous; details: read-out: Drug uptake
[21] = Ratio of drug level in spleen to plasma in male Beagle dog at 400 mg/kg, sc after 3 months; type: ADME, organism-based, Canis lupus familiaris; set-up: dose 400 mg/kg, route subcutaneous
[22] = Drug level in Beagle dog lymph node popliteal at 5 mg/kg administered intramuscularly after 6 months; type: ADME, organism-based, Canis lupus familiaris; set-up: dose 5 mg/kg, route intramuscular; details: im, read-out: Drug uptake
[23] = Drug level in Beagle dog lymph node axillar at 5 mg/kg administered intramuscularly after 6 months; type: ADME, organism-based, Canis lupus familiaris; set-up: dose 5 mg/kg, route intramuscular; details: axillary lymph node, im, read-out: Drug uptake
[24] = Drug level in female Beagle dog spleen at 400 mg/kg, sc after 3 months; type: ADME, organism-based, Canis lupus familiaris; set-up: dose 400 mg/kg, route subcutaneous; details: read-out: Drug uptake
[25] = Drug level in Beagle dog thymus at 5 mg/kg, sc after 6 months; type: ADME, organism-based, Canis lupus familiaris; set-up: dose 5 mg/kg, route subcutaneous; details: read-out: Drug uptake
[26] = Plasma concentration in male Beagle dog at 200 mg/kg administered intramuscularly after 1 month; type: ADME, organism-based, Canis lupus familiaris; set-up: dose 200 mg/kg, route intramuscular; details: im
[27] = Drug level in Beagle dog muscle at injected site at 5 mg/kg administered intramuscularly after 3 months; type: ADME, organism-based, Canis lupus familiaris, Muscle tissue; set-up: dose 5 mg/kg, route intramuscular; details: im, read-out: Drug uptake
[28] = Ratio of drug level in lymph node popliteal to plasma in Beagle dog at 5 mg/kg, sc after 1 month; type: ADME, organism-based, Canis lupus familiaris; set-up: dose 5 mg/kg, route subcutaneous
[29] = Drug level in female Beagle dog spleen at 400 mg/kg, sc after 1 month; type: ADME, organism-based, Canis lupus familiaris; set-up: dose 400 mg/kg, route subcutaneous; details: read-out: Drug uptake
[30] = Plasma concentration in male Beagle dog at 400 mg/kg, sc after 3 months; type: ADME, organism-based, Canis lupus familiaris; set-up: dose 400 mg/kg, route subcutaneous
[31] = Drug level in male Beagle dog spleen at 200 mg/kg administered intramuscularly after 1 month; type: ADME, organism-based, Canis lupus familiaris; set-up: dose 200 mg/kg, route intramuscular; details: im, read-out: Drug uptake
[32] = Drug level in Beagle dog thymus at 5 mg/kg administered intramuscularly after 3 months; type: ADME, organism-based, Canis lupus familiaris; set-up: dose 5 mg/kg, route intramuscular; details: im, read-out: Drug uptake
[33] = Ratio of drug level in thymus to plasma in female Beagle dog at 200 mg/kg administered intramuscularly after 3 months; type: ADME, organism-based, Canis lupus familiaris; set-up: dose 200 mg/kg, route intramuscular; details: im
[34] = AUC (0 to last) in Beagle dog at 5 mg/kg administered intramuscularly after 184 days; type: ADME, organism-based, Canis lupus familiaris; set-up: dose 5 mg/kg, route intramuscular, time 0 - last; details: plasma, im
[35] = AUC (0 to last) in male dog at 200 mg, sc after 85 days; details: plasma
[36] = Ratio of drug level in spleen to plasma in female Beagle dog at 200 mg/kg administered intramuscularly after 3 months; type: ADME, organism-based, Canis lupus familiaris; set-up: dose 200 mg/kg, route intramuscular; details: im
[37] = Ratio of drug level in lymph node iliac to plasma in Beagle dog at 5 mg/kg administered intramuscularly after 1 month; type: ADME, organism-based, Canis lupus familiaris; set-up: dose 5 mg/kg, route intramuscular; details: im
[38] = Drug level in male Beagle dog thymus at 200 mg/kg, sc after 3 months; type: ADME, organism-based, Canis lupus familiaris; set-up: dose 200 mg/kg, route subcutaneous; details: read-out: Drug uptake
Canis familiaris [39] = test: Toxicity in Beagle dog assessed as abscess formation at 20 mg/kg, sc after 3 months; type: organism-based, Canis lupus familiaris; set-up: dose 20 mg/kg, route subcutaneous; details: in vivo, 2191.5 h
[40] = Drug level in female Beagle dog spleen at 400 mg/kg administered intramuscularly after 1 month; type: ADME, organism-based, Canis lupus familiaris; set-up: dose 400 mg/kg, route intramuscular; details: im, read-out: Drug uptake
[41] = Cmax in female dog at 400 mg administered intramuscularly after 29 days; details: in vivo, im
[42] = Cmax in Beagle dog at 5 mg/kg administered intramuscularly after 184 days; type: ADME, organism-based, Canis lupus familiaris; set-up: dose 5 mg/kg, route intramuscular; details: in vivo, im
[43] = Ratio of drug level in spleen to plasma in Beagle dog at 5 mg/kg, sc after 6 months; type: ADME, organism-based, Canis lupus familiaris; set-up: dose 5 mg/kg, route subcutaneous
[44] = Ratio of drug level in spleen to plasma in male Beagle dog at 200 mg/kg, sc after 3 months; type: ADME, organism-based, Canis lupus familiaris; set-up: dose 200 mg/kg, route subcutaneous
[45] = Cmax in female dog at 400 mg administered intramuscularly after 85 days; details: in vivo, im
[46] = Ratio of drug level in spleen to plasma in female Beagle dog at 200 mg/kg administered intramuscularly after 1 month; type: ADME, organism-based, Canis lupus familiaris; set-up: dose 200 mg/kg, route intramuscular; details: im
Canis familiaris [47] = test: Toxicity in Beagle dog assessed as irritation at 20 mg/kg administered intramuscularly after 3 months; type: organism-based, Canis lupus familiaris; set-up: dose 20 mg/kg, route intramuscular; details: in vivo, im, 2191.5 h
[48] = Plasma concentration in female Beagle dog at 200 mg/kg administered intramuscularly after 3 months; type: ADME, organism-based, Canis lupus familiaris; set-up: dose 200 mg/kg, route intramuscular; details: im
[49] = Ratio of drug level in thymus to plasma in Beagle dog at 5 mg/kg, sc after 3 months; type: ADME, organism-based, Canis lupus familiaris; set-up: dose 5 mg/kg, route subcutaneous
Canis familiaris [50] = test: Toxicity in Beagle dog assessed as inflammatory signs at 20 mg/kg, sc after 3 months; type: organism-based, Canis lupus familiaris; set-up: dose 20 mg/kg, route subcutaneous; details: in vivo, 2191.5 h
[51] = Drug level in Beagle dog lymph node iliac at 5 mg/kg, sc after 1 month; type: ADME, organism-based, Canis lupus familiaris; set-up: dose 5 mg/kg, route subcutaneous; details: read-out: Drug uptake
[52] = Drug level in male Beagle dog thymus at 400 mg/kg, sc after 3 months; type: ADME, organism-based, Canis lupus familiaris; set-up: dose 400 mg/kg, route subcutaneous; details: read-out: Drug uptake
[53] = Drug level in female Beagle dog thymus at 400 mg/kg administered intramuscularly after 1 month; type: ADME, organism-based, Canis lupus familiaris; set-up: dose 400 mg/kg, route intramuscular; details: im, read-out: Drug uptake
[54] = Ratio of drug level in spleen to plasma in Beagle dog at 5 mg/kg, sc after 3 months; type: ADME, organism-based, Canis lupus familiaris; set-up: dose 5 mg/kg, route subcutaneous

Cc1cc(/C=C/C#N)cc(C)c1Nc1ccnc(Nc2ccc(C#N)cc2)n1 [RILPIVIRINE]
concentration at 2191.5 h [1]: 34.4 ng/g
Kp at 730.5 h [2]: 6
concentration at 2191.5 h [3]: 3.3 ng/mL
AUC(0-inf) [4]: 1230 ng·h/mL
AUC(0-t) at 696 h [5]: 70600 ng·h/mL
Kp at 2191.5 h [6]: 2.9
concentration at 2191.5 h [7]: 23.8 ng/g
Kp at 2191.5 h [8]: 5.2
concentration at 730.5 h [9]: 142 ng/g
concentration at 730.5 h [10]: 6500 ng/g
Kp at 730.5 h [11]: 2
Kp at 2191.5 h [12]: 2.9
Tmax [13]: 4.6 h
concentration at 4383 h [14]: 8.6 ng/g
Kp at 730.5 h [15]: 2.6
concentration at 4383 h [16]: 13.3 ng/g
AUC(0-t) at 696 h [17]: 56800 ng·h/mL
Kp at 730.5 h [18]: 2.5
Cmax [19]: 107 ng/mL
concentration at 4383 h [20]: 7.1 ng/g
Kp at 2191.5 h [21]: 2.3
concentration at 4383 h [22]: 30.7 ng/g
concentration at 4383 h [23]: 12.2 ng/g
concentration at 2191.5 h [24]: 67.5 ng/g
concentration at 4383 h [25]: 20.2 ng/g
concentration at 730.5 h [26]: 74.5 ng/mL
concentration at 2191.5 h [27]: 142000 ng/g
Kp at 730.5 h [28]: 4.1
concentration at 730.5 h [29]: 285 ng/g
concentration at 2191.5 h [30]: 48.4 ng/mL
concentration at 730.5 h [31]: 133 ng/g
concentration at 2191.5 h [32]: 14.7 ng/g
Kp at 2191.5 h [33]: 2.8
AUC(0-t) at 4416 h [34]: 39400 ng·h/mL
AUC(0-t) at 2040 h [35]: 97800 ng·h/mL
Kp at 2191.5 h [36]: 2.2
Kp at 730.5 h [37]: 168
concentration at 2191.5 h [38]: 84.2 ng/g
Activity (Canis familiaris [39]): Non-toxic
concentration at 730.5 h [40]: 311 ng/g
Cmax [41]: 6190 ng/mL
Cmax [42]: 173 ng/mL
Kp at 4383 h [43]: 5.5
Kp at 2191.5 h [44]: 2.5
Cmax [45]: 5260 ng/mL
Kp at 730.5 h [46]: 2.3
Activity (Canis familiaris [47]): Non-toxic
concentration at 2191.5 h [48]: 10.1 ng/mL
Kp at 2191.5 h [49]: 13
Activity (Canis familiaris [50]): Non-toxic
concentration at 730.5 h [51]: 64.9 ng/g
concentration at 2191.5 h [52]: 173 ng/g
concentration at 730.5 h [53]: 676 ng/g
Kp at 2191.5 h [54]: 3
